Laboratory results as given in patent publication US20250019703A1, “PHARMACEUTICAL COMPOSITION FOR PREVENTION OR TREATMENT OF BLOOD CANCER COMPRISING SURF4 INHIBITOR” (PUSAN NATIONAL UNIVERSITY INDUSTRY-UNIVERSITY COOPERATION …, priority 2021, published 2025).

What was measured:
[1] = system: STING in myeloid leukemia cells; experiment: Apoptosis and pTBK1 expression after cGAMP treatment; format: cell-based; conditions: cells treated with cGAMP; FIG. 15B
Procedure: Based on a report that STING, one of the endoplasmic reticulum membrane proteins, induces apoptosis and binds to SURF4 and STAT6, cells were treated with cGAMP, which induces STING. Specifically, cells were collected and lysed with a lysis buffer to extract proteins, which were then separated on a 10% SDS-PAGE gel and transferred to a membrane. pJNK, JNK, BAX, caspase 9, cleaved caspase 9, caspase 3, cleaved caspase 3, PARP, IRE1α, GRP78, PERK, pelF2α, elF2α, ATF4, CHOP, pSTAT6, STAT6, STING, pTBK1, and actin antibodies were each added, allowed to stand at 4° C. for 16 hours, and then a secondary antibody was added and allowed to stand at room temperature for one hour. Afterward, the resulting mixture was allowed to react with an ECL reagent, and the ECL was measured using a chemiluminescence image analyzer.

[2] = system: THP1, HL60, and K562 cells; experiment: Annexin V/7AAD apoptosis after paclitaxel treatment; format: cell-based, human; conditions: paclitaxel 0.5 μM alone, FIG. 5
Procedure: (§1) Apoptosis was measured after treating SURF4 shRNA-transfected THP1, HL60, and K562 cells with paclitaxel. The transfected SURF4 shRNA was the same as in Example 1-(1). Specifically, the concentration of paclitaxel treated in the THP1, HL60, and K562 cells was 0.5 μM, and after transfecting the cells with SURF4 shRNA, the cells were treated with paclitaxel 7 to 10 days later. Afterward, cells of each type were collected and suspended with an Annexin V binding buffer, and then Annexin V-FITC and 7AAD were added to perform measurement using a FACS flow cytometer.

[3] = system: THP1, HL60, and K562 cells; experiment: Annexin V/7AAD apoptosis after tunicamycin treatment; format: cell-based, human; conditions: tunicamycin 10 μM alone, FIG. 7
Procedure: as §1, with “tunicamycin.” for “paclitaxel.”, “tunicamycin” for “paclitaxel”, “10” for “0.5”

[4] = system: pSTAT6 in THP1 and HL60 cells; experiment: Western blot of pSTAT6 after IL4 treatment; format: cell-based, human; conditions: IL4 5 ng/ml for 60 minutes, FIG. 12
Procedure: Based on a report that apoptosis is induced by pSTAT6 through IL4 in leukemia cells, the expression of pSTAT6 was confirmed by treating a leukemia cell line with IL4, which induces STAT6. Specifically, THP1 and HL60 cells transfected with 6 μg of SURF4 shRNA were lysed by treating them with IL4 (5 ng/ml) for 60 minutes, and then Western blot was performed, and the SURF4 expression in the THP1 and HL60 cells transfected with SURF4 shRNA was measured by qRT-PCR. The cells were lysed with a lysis buffer to extract proteins, which were then separated on a 10% SDS-PAGE gel and transferred to a membrane. pJNK, JNK, BAX, caspase 9, cleaved caspase 9, caspase 3, cleaved caspase 3, PARP, IRE1α, GRP78, PERK, pelF2α, elF2α, ATF4, CHOP, pSTAT6, STAT6, STING, pTBK1, and actin antibodies were each added, allowed to stand at 4° C. for 16 hours, and then a secondary antibody was added and allowed to stand at room temperature for one hour. Afterward, the resulting mixture was allowed to react with an ECL reagent, and the ECL was measured using a chemiluminescence image analyzer. In addition, RNA was extracted from the cells using an RNA extraction kit, and cDNA was synthesized from the RNA using a cDNA synthesis kit. A qRT-PCR analysis was performed using the synthesized cDNA, SURF4 primers, and a SYBR green.

## Nc1nc2c(ncn2[C@@H]2O[C@@H]3COP(=O)(O)O[C@H]4[C@@H](O)[C@H](n5cnc6c(N)ncnc65)O[C@@H]4COP(=O)(O)O[C@@H]2[C@@H]3O)c(=O)[nH]1 [cGAMP, cyclic guanosine monophosphate-adenosine monophosphate]
[1]
  pTBK1 expression: pTBK1 downstream of STING increased

## CC(=O)O[C@H]1C(=O)[C@@]2(C)[C@H]([C@H](OC(=O)c3ccccc3)[C@]3(O)C[C@H](OC(=O)[C@H](O)[C@@H](NC(=O)c4ccccc4)c4ccccc4)C(C)=C1C3(C)C)[C@]1(OC(C)=O)CO[C@@H]1C[C@@H]2O [paclitaxel]
[2]
  apoptosis: induced apoptosis

## tunicamycin
[3]
  apoptosis: induced apoptosis

B1: IL4: interleukin-4, which induces STAT6 / the expression of pSTAT6 (protein, UniProt P05112 25-153, looked up)
Interleukin-4: HKCDITLQEIIKTLNSLTEQKTLCTELTVTDIFAASKNTTEKETFCRAATVLRQFYSHHEKDTRCLGATAQQFHRHKQLIRFLKRLDRNLWGLAGLNSCPVKEANQSTLENFLERLKTIMREKYSKCSS
[4]
  pSTAT6 expression (Western blot): pSTAT6 increased in both the control cells and the cells transfected with SURF4 shRNA
